# Measurements published in paper PMC13213488, “Small Molecule Activators of Protein Phosphatase 2A Exert Global Stabilizing Effects on the Scaffold PR65” (JACS Au, 2026).
# Target: T1, PR65 (Homo sapiens, UniProt P30153)
# T1 construct: gene PPP2R1A; WT PR65 alone (scaffold, 15 HEAT repeats, no B or C subunit), expressed in E. coli C41 as GST fusion, GST tag cleaved with thrombin; also a variant with ybbR tags at N- and C-termini used for optical tweezers
# Experiment: nanoDSF thermal shift
# Format: binding
# Details: melting temperature with ligand, not a shift (apo 52.7 ± 0.1 °C); 2 μM PR65, 100 μM ligand, PBS, 2 mM DTT, 10% DMSO
# T1 sequence (P30153 2-589): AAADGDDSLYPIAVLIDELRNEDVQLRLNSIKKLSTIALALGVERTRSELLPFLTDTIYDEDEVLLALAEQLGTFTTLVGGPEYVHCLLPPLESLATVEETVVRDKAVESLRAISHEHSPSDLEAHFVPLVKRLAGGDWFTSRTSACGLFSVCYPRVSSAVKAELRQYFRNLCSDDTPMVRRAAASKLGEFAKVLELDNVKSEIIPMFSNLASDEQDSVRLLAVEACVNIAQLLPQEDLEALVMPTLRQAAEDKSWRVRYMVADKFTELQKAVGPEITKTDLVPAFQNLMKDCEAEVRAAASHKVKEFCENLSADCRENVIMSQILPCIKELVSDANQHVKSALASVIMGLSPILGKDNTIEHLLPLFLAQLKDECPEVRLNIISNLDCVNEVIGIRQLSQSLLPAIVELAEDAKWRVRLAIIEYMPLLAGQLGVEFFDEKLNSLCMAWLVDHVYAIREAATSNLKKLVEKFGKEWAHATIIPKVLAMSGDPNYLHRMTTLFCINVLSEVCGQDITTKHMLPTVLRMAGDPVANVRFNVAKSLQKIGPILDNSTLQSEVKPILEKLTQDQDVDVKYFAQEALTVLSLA
substance,measurement,value
DBK-766,T m,53.5 ± 0.1 °C
